What was measured:
Test in all cases: Test B pre-/postemergence plant response
Type in all cases: in vivo
[1] = system: woolly cupgrass (Eriochloa villosa); conditions: for Plant response rating, Cupgrass, Woolly: Postemergence
Procedure, shortened: (§1)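 Plants treated either at seeding (loam/sand soil) or postemergence at 2 to 18 cm height, using a surfactant-containing non-phytotoxic solvent formulation. Evaluation was visual after 13 to 15 days, 0 to 100 scale relative to controls.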

[2] = system: velvetleaf (Abutilon theophrasti); conditions: for Plant response rating, Velvetleaf: Postemergence
Procedure, shortened: as §1

[3] = system: kochia (Kochia scoparia); conditions: for Plant response rating, Kochia: Postemergence
Procedure, shortened: as §1

[4] = system: Italian ryegrass (Lolium multiflorum); conditions: for Plant response rating, Ryegrass, Italian: Postemergence
Procedure, shortened: as §1

[5] = system: downy bromegrass (Bromus tectorum); conditions: for Bromegrass, Downy plant response rating (0 to 100 scale): 62 g ai/ha, postemergence, 0 is no effect, 100 is complete control; for Plant response rating, Bromegrass, Downy: Postemergence
Procedure, shortened: as §1

[6] = system: goosegrass (Eleusine indica); conditions: for Plant response rating, Goosegrass: Postemergence
Procedure, shortened: as §1

[7] = system: large crabgrass (Digitaria sanguinalis); conditions: for Plant response rating, Crabgrass, Large: Postemergence
Procedure, shortened: as §1

[8] = system: corn (Zea mays); conditions: for Plant response rating, Corn: Postemergence
Procedure, shortened: as §1

[9] = system: wheat (Triticum aestivum); conditions: for Plant response rating, Wheat: Postemergence
Procedure, shortened: as §1

[10] = system: johnsongrass (Sorghum halepense); conditions: for Plant response rating, Johnsongrass: Postemergence
Procedure, shortened: as §1

[11] = system: soybean (Glycine max); conditions: for Plant response rating, Soybean: Postemergence
Procedure, shortened: as §1

[12] = system: Surinam grass (Brachiaria decumbens); conditions: for Plant response rating, Surinam Grass: Postemergence
Procedure, shortened: as §1

[13] = system: lambsquarters (Chenopodium album); conditions: for Plant response rating, Lambsquarters: Postemergence
Procedure, shortened: as §1

[14] = system: blackgrass (Alopecurus myosuroides); conditions: for Blackgrass plant response rating (0 to 100 scale): 62 g ai/ha, postemergence, 0 is no effect, 100 is complete control; for Plant response rating, Blackgrass: Postemergence
Procedure, shortened: as §1

[15] = system: ragweed (common ragweed, Ambrosia elatior); conditions: for Plant response rating, Ragweed: Postemergence
Procedure, shortened: as §1

[16] = system: pigweed (Amaranthus retroflexus); conditions: for Plant response rating, Pigweed: Postemergence
Procedure, shortened: as §1

[17] = system: yellow nutsedge (Cyperus esculentus); conditions: for Plant response rating, Nutsedge, Yellow: Postemergence
Procedure, shortened: as §1

[18] = system: wild oat (Avena fatua); conditions: for Plant response rating, Oat, Wild: Postemergence
Procedure, shortened: as §1

[19] = 31 g ai/ha, 0 to 100 scale (0 no effect, 100 complete control)
[20] = 125 g ai/ha, scale 0 to 100 (0 no effect, 100 complete control)
[21] = 250 g ai/ha, scale 0 to 100 (0 no effect, 100 complete control), 13 to 15 days
[22] = 62 g ai/ha, postemergence, 0 is no effect, 100 is complete control, 13 to 15 days

Cc1ccc(-n2c(-c3cc(F)cc(F)c3)ncc(C(=O)C3=C(O)CCCC3=O)c2=O)cc1 [Compound 162]
Plant response rating, Cupgrass, Woolly [1, 19]: 90 | Plant response rating, Cupgrass, Woolly [1, 20]: 100 | Plant response rating, Cupgrass, Woolly [1, 21]: 100 | Plant response rating, Velvetleaf [2, 19]: 80 | Plant response rating, Velvetleaf [2, 20]: 95 | Plant response rating, Velvetleaf [2, 21]: 100 | Plant response rating, Kochia [3, 19]: 20 | Plant response rating, Kochia [3, 20]: 75 | Plant response rating, Kochia [3, 21]: 80 | Plant response rating, Ryegrass, Italian [4, 19]: 40 | Plant response rating, Ryegrass, Italian [4, 20]: 80 | Plant response rating, Ryegrass, Italian [4, 21]: 90 | Bromegrass, Downy plant response rating (0 to 100 scale) ([5]; 13 to 15 days): 30 | Plant response rating, Bromegrass, Downy [5, 19]: 20 | Plant response rating, Bromegrass, Downy [5, 20]: 45 | Plant response rating, Bromegrass, Downy [5, 21]: 50 | Plant response rating, Goosegrass [6, 19]: 60 | Plant response rating, Goosegrass [6, 20]: 90 | Plant response rating, Goosegrass [6, 21]: 98 | Plant response rating, Crabgrass, Large [7, 19]: 80 | Plant response rating, Crabgrass, Large [7, 20]: 98 | Plant response rating, Crabgrass, Large [7, 21]: 98 | Plant response rating, Corn [8, 19]: 50 | Plant response rating, Corn [8, 20]: 80 | Plant response rating, Corn [8, 21]: 85 | Plant response rating, Wheat [9, 19]: 10 | Plant response rating, Wheat [9, 20]: 35 | Plant response rating, Wheat [9, 21]: 40 | Plant response rating, Johnsongrass [10, 19]: 98 | Plant response rating, Johnsongrass [10, 20]: 100 | Plant response rating, Johnsongrass [10, 21]: 100 | Plant response rating, Soybean [11, 19]: 98 | Plant response rating, Soybean [11, 20]: 100 | Plant response rating, Soybean [11, 21]: 100 | Plant response rating, Surinam Grass [12, 19]: 65 | Plant response rating, Surinam Grass [12, 20]: 75 | Plant response rating, Surinam Grass [12, 21]: 85 | Plant response rating, Lambsquarters [13, 19]: 80 | Plant response rating, Lambsquarters [13, 20]: 98 | Plant response rating, Lambsquarters [13, 21]: 100 | Blackgrass plant response rating (0 to 100 scale) ([14]; 13 to 15 days): 40 | Plant response rating, Blackgrass [14, 19]: 30 | Plant response rating, Blackgrass [14, 20]: 55 | Plant response rating, Blackgrass [14, 21]: 65 | Plant response rating, Ragweed [15, 19]: 90 | Plant response rating, Ragweed [15, 20]: 100 | Plant response rating, Ragweed [15, 21]: 100 | Plant response rating, Pigweed [16, 19]: 100 | Plant response rating, Pigweed [16, 20]: 100 | Plant response rating, Pigweed [16, 21]: 100 | Plant response rating, Nutsedge, Yellow [17, 19]: 25 | Plant response rating, Nutsedge, Yellow [17, 20]: 75 | Plant response rating, Nutsedge, Yellow [17, 21]: 80 | Plant response rating, Oat, Wild [18, 19]: 35 | Plant response rating, Oat, Wild [18, 20]: 45 | Plant response rating, Oat, Wild [18, 21]: 55

CCn1c(-c2cc(F)cc(F)c2)ncc(C(=O)C2=C(O)CCCC2=O)c1=O [Compound 122]
Plant response rating, Cupgrass, Woolly ([1]; 16 g ai/ha, 0 to 100 scale): 65 | Cupgrass, Woolly plant response rating (0 to 100 scale) [1, 22]: 70 | Plant response rating, Cupgrass, Woolly [1, 19]: 65 | Plant response rating, Cupgrass, Woolly [1, 20]: 75 | Plant response rating, Velvetleaf ([2]; 16 g ai/ha, 0 to 100 scale): 75 | Velvetleaf plant response rating (0 to 100 scale) [2, 22]: 90 | Plant response rating, Velvetleaf [2, 19]: 80 | Plant response rating, Velvetleaf [2, 20]: 98 | Plant response rating, Kochia ([3]; 16 g ai/ha, 0 to 100 scale): 0 | Kochia plant response rating (0 to 100 scale) [3, 22]: 0 | Plant response rating, Kochia [3, 19]: 0 | Plant response rating, Kochia [3, 20]: 45 | Plant response rating, Ryegrass, Italian ([4]; 16 g ai/ha, 0 to 100 scale): 5 | Ryegrass, Italian plant response rating (0 to 100 scale) [4, 22]: 10 | Plant response rating, Ryegrass, Italian [4, 19]: 5 | Plant response rating, Ryegrass, Italian [4, 20]: 40 | Plant response rating, Bromegrass, Downy ([5]; 16 g ai/ha, 0 to 100 scale): 5 | Bromegrass, Downy plant response rating (0 to 100 scale) ([5]; 13 to 15 days): 5 | Plant response rating, Bromegrass, Downy [5, 19]: 5 | Plant response rating, Bromegrass, Downy [5, 20]: 50 | Plant response rating, Goosegrass ([6]; 16 g ai/ha, 0 to 100 scale): 10 | Goosegrass plant response rating (0 to 100 scale) [6, 22]: 65 | Plant response rating, Goosegrass [6, 19]: 40 | Plant response rating, Goosegrass [6, 20]: 70 | Plant response rating, Crabgrass, Large ([7]; 16 g ai/ha, 0 to 100 scale): 65 | Crabgrass, Large plant response rating (0 to 100 scale) [7, 22]: 75 | Plant response rating, Crabgrass, Large [7, 19]: 75 | Plant response rating, Crabgrass, Large [7, 20]: 85 | Plant response rating, Corn ([8]; 16 g ai/ha, 0 to 100 scale): 0 | Corn plant response rating (0 to 100 scale) [8, 22]: 15 | Plant response rating, Corn [8, 19]: 0 | Plant response rating, Corn [8, 20]: 25 | Plant response rating, Wheat ([9]; 16 g ai/ha, 0 to 100 scale): 5 | Wheat plant response rating (0 to 100 scale) [9, 22]: 30 | Plant response rating, Wheat [9, 19]: 15 | Plant response rating, Wheat [9, 20]: 50 | Plant response rating, Johnsongrass ([10]; 16 g ai/ha, 0 to 100 scale): 20 | Johnsongrass plant response rating (0 to 100 scale) [10, 22]: 65 | Plant response rating, Johnsongrass [10, 19]: 45 | Plant response rating, Johnsongrass [10, 20]: 75 | Plant response rating, Soybean ([11]; 16 g ai/ha, 0 to 100 scale): 20 | Soybean plant response rating (0 to 100 scale) [11, 22]: 75 | Plant response rating, Soybean [11, 19]: 45 | Plant response rating, Soybean [11, 20]: 80 | Plant response rating, Surinam Grass ([12]; 16 g ai/ha, 0 to 100 scale): 25 | Surinam Grass plant response rating (0 to 100 scale) [12, 22]: 75 | Plant response rating, Surinam Grass [12, 19]: 75 | Plant response rating, Surinam Grass [12, 20]: 90 | Plant response rating, Lambsquarters ([13]; 16 g ai/ha, 0 to 100 scale): 55 | Lambsquarters plant response rating (0 to 100 scale) [13, 22]: 65 | Plant response rating, Lambsquarters [13, 19]: 60 | Plant response rating, Lambsquarters [13, 20]: 90 | Plant response rating, Blackgrass ([14]; 16 g ai/ha, 0 to 100 scale): 0 | Blackgrass plant response rating (0 to 100 scale) ([14]; 13 to 15 days): 5 | Plant response rating, Blackgrass [14, 19]: 5 | Plant response rating, Blackgrass [14, 20]: 15 | Plant response rating, Ragweed ([15]; 16 g ai/ha, 0 to 100 scale): 55 | Ragweed plant response rating (0 to 100 scale) [15, 22]: 60 | Plant response rating, Ragweed [15, 19]: 60 | Plant response rating, Ragweed [15, 20]: 75 | Plant response rating, Pigweed ([16]; 16 g ai/ha, 0 to 100 scale): 75 | Pigweed plant response rating (0 to 100 scale) [16, 22]: 90 | Plant response rating, Pigweed [16, 19]: 85 | Plant response rating, Pigweed [16, 20]: 98 | Plant response rating, Nutsedge, Yellow ([17]; 16 g ai/ha, 0 to 100 scale): 35 | Nutsedge, Yellow plant response rating (0 to 100 scale) [17, 22]: 70 | Plant response rating, Nutsedge, Yellow [17, 19]: 55 | Plant response rating, Nutsedge, Yellow [17, 20]: 75 | Plant response rating, Oat, Wild ([18]; 16 g ai/ha, 0 to 100 scale): 5 | Oat, Wild plant response rating (0 to 100 scale) [18, 22]: 30 | Plant response rating, Oat, Wild [18, 19]: 5 | Plant response rating, Oat, Wild [18, 20]: 35

— patent US8952024B2, “Herbicidal pyrimidone derivatives” (E I du Pont de Nemours and Company, priority 2009, dated 2015)
